Here are results for seven molecules from PubChem BioAssay AID1259407 (Chemical Carcinogenesis Research Information System (CCRIS), 2018).

The source made the active and inactive calls. No rule for the calls is given here.

This data set relates to CCRIS mutagenicity, Ames/micronucleus/aberration tests. Kind of data set: CCRIS mutagenicity studies.
The mark [1] stands for this setting: Test System: AMES SALMONELLA TYPHIMURIUM, Strain/Indicator: TA98, Metabolic Activation: NONE, Method: PREINCUBATION
Setting [2] is: Test System: AMES SALMONELLA TYPHIMURIUM, Strain/Indicator: TA100, Metabolic Activation: NONE, Method: PREINCUBATION
[3] abbreviates: Test System: AMES SALMONELLA TYPHIMURIUM, Strain/Indicator: TA100, Metabolic Activation: RAT, LIVER, S-9, AROCLOR 1254, Method: STANDARD PLATE.
[4] abbreviates: Test System: AMES SALMONELLA TYPHIMURIUM, Strain/Indicator: TA98, Metabolic Activation: NONE, Method: STANDARD PLATE.
Setting [5] is: Test System: AMES SALMONELLA TYPHIMURIUM, Strain/Indicator: TA100, Metabolic Activation: NONE, Method: STANDARD PLATE.
Setting [6] is: Test System: CHINESE HAMSTER V-79, Strain/Indicator: V-79/8-AZAGUANINE, Metabolic Activation: NONE, Method: STANDARD PLATE.

`N[C@@H](Cc1c[nH]c2ccccc12)C(=O)O`: the mutagenic call by setting is: (Test System: AMES SALMONELLA TYPHIMURIUM, Strain/Indicator: TA97, Metabolic Activation: HAMSTER, LIVER, S-9, AROCLOR 1254 (10 OR 30%), Method: PREINCUBATION) “inactive; negative”; (Test System: AMES SALMONELLA TYPHIMURIUM, Strain/Indicator: TA97, Metabolic Activation: NONE, Method: PREINCUBATION) “inactive; negative”; (Test System: AMES SALMONELLA TYPHIMURIUM, Strain/Indicator: TA97, Metabolic Activation: RAT, LIVER, S-9, AROCLOR 1254 (10 OR 30%), Method: PREINCUBATION) “inactive; negative”; (Test System: AMES SALMONELLA TYPHIMURIUM, Strain/Indicator: TA98, Metabolic Activation: HAMSTER, LIVER, S-9, AROCLOR 1254 (10 OR 30%), Method: PREINCUBATION) “inactive; negative”; under setting [1], “inactive; negative”; (Test System: AMES SALMONELLA TYPHIMURIUM, Strain/Indicator: TA98, Metabolic Activation: RAT, LIVER, S-9, AROCLOR 1254 (10 OR 30%), Method: PREINCUBATION) “inactive; negative”. The mutagenic call runs as follows: (Test System: AMES SALMONELLA TYPHIMURIUM, Strain/Indicator: TA100, Metabolic Activation: HAMSTER, LIVER, S-9, AROCLOR 1254 (10 OR 30%), Method: PREINCUBATION) “inactive; negative”; under setting [2], “inactive; negative”; (Test System: AMES SALMONELLA TYPHIMURIUM, Strain/Indicator: TA100, Metabolic Activation: RAT, LIVER, S-9, AROCLOR 1254 (10 OR 30%), Method: PREINCUBATION) “inactive; negative”; (Test System: AMES SALMONELLA TYPHIMURIUM, Strain/Indicator: TA1535, Metabolic Activation: HAMSTER, LIVER, S-9, AROCLOR 1254 (10 OR 30%), Method: PREINCUBATION) “inactive; negative”; (Test System: AMES SALMONELLA TYPHIMURIUM, Strain/Indicator: TA1535, Metabolic Activation: NONE, Method: PREINCUBATION) “inactive; negative”; (Test System: AMES SALMONELLA TYPHIMURIUM, Strain/Indicator: TA1535, Metabolic Activation: RAT, LIVER, S-9, AROCLOR 1254 (10 OR 30%), Method: PREINCUBATION) “inactive; negative”. Further, the mutagenic call (Test System: AMES SALMONELLA TYPHIMURIUM, Strain/Indicator: TA1537, Metabolic Activation: HAMSTER, LIVER, S-9, AROCLOR 1254 (30%), Method: PREINCUBATION) was “inactive; negative”; the mutagenic call (Test System: AMES SALMONELLA TYPHIMURIUM, Strain/Indicator: TA1537, Metabolic Activation: NONE, Method: PREINCUBATION) was “inactive; negative”; the mutagenic call (Test System: AMES SALMONELLA TYPHIMURIUM, Strain/Indicator: TA1537, Metabolic Activation: RAT, LIVER, S-9, AROCLOR 1254 (30%), Method: PREINCUBATION) was “inactive; negative”.
`O=S(=O)(O)N(O)S(=O)(=O)O`: the mutagenic call (Test System: AMES SALMONELLA TYPHIMURIUM, Strain/Indicator: G46, Metabolic Activation: RAT, LIVER, S-9, AROCLOR 1254, Method: STANDARD PLATE) is “active; positive” and the mutagenic call under setting [3] is “active; positive”.
Turning to `Clc1cnc2ccccc2c1`, the mutagenic call (Test System: AMES SALMONELLA TYPHIMURIUM, Strain/Indicator: TA100, Metabolic Activation: RAT, LIVER, S-9, PHENOBARBITAL AND 5,6-BENZOFLAVONE, Method: PREINCUBATION) was “inactive; negative”.
In the case of `Nc1ccc([N+](=O)[O-])cc1[N+](=O)[O-]`, the mutagenic call (End Point: IN VITRO CHROMOSOMAL ABERRATIONS, Test System: CHL CELLS, Metabolic Activation: NONE) was “inactive; negative”; the mutagenic call (End Point: IN VITRO CHROMOSOMAL ABERRATIONS, Test System: CHL CELLS, Metabolic Activation: RAT, LIVER, S-9, SODIUM PHENOBARBITAL AND 5,6-BENZOFLAVONE) was “active; positive (structural changes)”; the mutagenic call (End Point: IN VITRO CHROMOSOMAL ABERRATIONS, Test System: HUMAN PERIPHERAL LYMPHOCYTES, Metabolic Activation: NONE) is “active; positive”; the mutagenic call under setting [1] was “active; positive”; the mutagenic call under setting [4] is “active; positive”; the mutagenic call (Test System: AMES SALMONELLA TYPHIMURIUM, Strain/Indicator: TA98, Metabolic Activation: RAT, LIVER, S-9, AROCLOR 1254, Method: STANDARD PLATE) was “active; positive”. Besides, the mutagenic call reads like this: (Test System: AMES SALMONELLA TYPHIMURIUM, Strain/Indicator: TA98, Metabolic Activation: RAT, LIVER, S-9, KANECHLOR 500, Method: PREINCUBATION) “active; positive”; under setting [2], “active; positive”; under setting [5], “inactive; negative”; under setting [3], “inactive; negative”; (Test System: AMES SALMONELLA TYPHIMURIUM, Strain/Indicator: TA100, Metabolic Activation: RAT, LIVER, S-9, KANECHLOR 500, Method: PREINCUBATION) “active; positive”; (Test System: UDS RODENT HEPATOCYTES, Strain/Indicator: THY INCORP (NON-S-PHASE), Metabolic Activation: NONE, Method: AUTORADIOGRAPHY) “inactive; negative”.
On to `C[N+](C)(C)CC1CO1` (centres undefined), for which, under “Test System: UDS RAT HEPATOCYTES, Strain/Indicator: THY INCORP, Metabolic Activation: NONE”, the mutagenic call is “active; positive”.
As to `ClC1CO1` (centres undefined), the mutagenic call is, setting by setting: under setting [6], “active; positive”; (Test System: CHINESE HAMSTER V-79, Strain/Indicator: V-79/OUABAIN, Metabolic Activation: NONE, Method: STANDARD PLATE) “active; positive”; (Test System: HUMAN H2E1 CELLS, Strain/Indicator: HPRT/6-THIOGUANINE, Metabolic Activation: NONE, Method: SUSPENSION/MICROTITER PLATE) “active; positive”.
As for `CCN(CCCl)CCCNc1c2ccc(Cl)cc2nc2ccc(OC)cc12`, the mutagenic call is, setting by setting: under setting [4], “active; positive”; under setting [5], “active; positive”; (Test System: AMES SALMONELLA TYPHIMURIUM, Strain/Indicator: TA1535, Metabolic Activation: NONE, Method: STANDARD PLATE) “inactive; negative”; (Test System: AMES SALMONELLA TYPHIMURIUM, Strain/Indicator: TA1536, Metabolic Activation: NONE, Method: STANDARD PLATE) “active; positive”; (Test System: AMES SALMONELLA TYPHIMURIUM, Strain/Indicator: TA1537, Metabolic Activation: NONE, Method: STANDARD PLATE) “active; positive”; (Test System: AMES SALMONELLA TYPHIMURIUM, Strain/Indicator: TA1538, Metabolic Activation: NONE, Method: STANDARD PLATE) “active; positive”. In addition, the mutagenic call is “active; positive” (Test System: CHINESE HAMSTER OVARY, Strain/Indicator: CHO-K1-BH4 (HGPRT)/6-THIOGUANINE, Metabolic Activation: NONE, Method: SUSPENSION/PLATE); “active; positive” (Test System: CHINESE HAMSTER OVARY, Strain/Indicator: CHO-K1-BH4 (HGPRT), Metabolic Activation: NONE, Method: MONOLAYER ASSAY); “active; positive” (Test System: CHINESE HAMSTER OVARY, Strain/Indicator: CHO-K1-BH4 (HGPRT), Metabolic Activation: NONE, Method: SUSPENSION/PLATE); “active; positive” (Test System: CHINESE HAMSTER V-79, Strain/Indicator: V-79/6-THIOGUANINE, Metabolic Activation: NONE, Method: FLASK ASSAY); “active; positive” under setting [6]; “active; positive” (Test System: CHO/HGPRT, Strain/Indicator: CHO-K1-BH4, Metabolic Activation: NONE, Method: STANDARD PLATE). The mutagenic call is, setting by setting: (Test System: MOUSE LYMPHOMA, Strain/Indicator: L5178Y (TK+/TK-), Metabolic Activation: NONE, Method: SUSPENSION/PLATE) “active; positive”; (Test System: Mouse lymphoma, Strain/Indicator: L5178Y (tk+/tk-), Metabolic Activation: None, Method: Suspension/plate) “active; positive”; (Test System: Mouse lymphoma, Strain/Indicator: L5178Y (tk+/tk-), Metabolic Activation: Rat, Liver, S-9, Aroclor 1254, Method: Suspension/plate) “inconclusive (previous evaluation equivocal)”.
